Measurements taken from EP4635500A1, “THERAPEUTIC AGENT FOR BACTERIAL INFECTION” (Sumitomo Pharma Co., Ltd., priority 2022, dated 2024).
Values after ≈ are worked out from the molar mass of the structure shown. Like-named read-outs stand apart in the source and are kept apart here.

System: Enterobacterales
Assay: MIC, broth microdilution, CDC/FDA Antibiotic Resistance Isolate Bank (Example 7, Tables 8, 11, 12)
Format: cell-based
Conditions: for MIC: read-out: MIC; for MIC90: read-out: MIC90

SMILES: CO/N=C(\C(=O)N[C@@H]1C(=O)N2C(C(=O)[O-])=C(C[n+]3ccn4ncccc43)CS[C@H]12)c1nsc(N)n1 [Cefozopran, cefozopran]
- MIC (Klebsiella pneumoniae, KUB No. 5538, AR Bank# 41): > 64 µg/mL
- MIC (Klebsiella pneumoniae, KUB No. 5540, AR Bank# 43): > 64 µg/mL
- MIC (Klebsiella pneumoniae, KUB No. 5541, AR Bank# 44): > 64 µg/mL
- MIC (Klebsiella pneumoniae, KUB No. 5543, AR Bank# 46): > 64 µg/mL
- MIC (Klebsiella pneumoniae, KUB No. 5546, AR Bank# 49): > 64 µg/mL
- MIC (Klebsiella pneumoniae, KUB No. 5563, AR Bank # 66): > 64 µg/mL
- MIC (Klebsiella pneumoniae, KUB No. 5565, AR Bank # 68): > 64 µg/mL
- MIC (Klebsiella pneumoniae, KUB No. 5572, AR Bank # 75): > 64 µg/mL
- MIC (Klebsiella pneumoniae, KUB No. 5573, AR Bank # 76): 64 µg/mL (≈ 124 µM)
- MIC (Klebsiella pneumoniae, KUB No. 5576, AR Bank # 79): > 64 µg/mL
- MIC (Klebsiella pneumoniae, KUB No. 5577, AR Bank # 80): > 64 µg/mL
- MIC (Klebsiella pneumoniae, KUB No. 5584, AR Bank # 87): 32 µg/mL (≈ 62.1 µM)
- MIC (Klebsiella pneumoniae, KUB No. 5594, AR Bank # 97): > 64 µg/mL
- MIC (Klebsiella pneumoniae, KUB No. 5595, AR Bank # 98): 16 µg/mL (≈ 31 µM)
- MIC (Klebsiella pneumoniae, KUB No. 5603, AR Bank # 106): > 64 µg/mL
- MIC (Klebsiella pneumoniae, KUB No. 5604, AR Bank # 107): > 64 µg/mL
- MIC (Klebsiella pneumoniae, KUB No. 5606, AR Bank # 109): > 64 µg/mL
- MIC (Klebsiella pneumoniae, KUB No. 5609, AR Bank # 112): 32 µg/mL (≈ 62.1 µM)
- MIC (Klebsiella pneumoniae, KUB No. 5610, AR Bank # 113): > 64 µg/mL
- MIC (Klebsiella pneumoniae, KUB No. 5612, AR Bank # 115): 32 µg/mL (≈ 62.1 µM)
- MIC (Klebsiella pneumoniae, KUB No. 5614, AR Bank # 117): > 64 µg/mL
- MIC (Klebsiella pneumoniae, KUB No. 5617, AR Bank # 120): 32 µg/mL (≈ 62.1 µM)
- MIC (Klebsiella pneumoniae, KUB No. 5622, AR Bank # 125): 32 µg/mL (≈ 62.1 µM)
- MIC (Klebsiella pneumoniae, KUB No. 5623, AR Bank # 126): 64 µg/mL (≈ 124 µM)
- MIC (Klebsiella pneumoniae, KUB No. 5626, AR Bank # 129): 32 µg/mL (≈ 62.1 µM)
- MIC (Klebsiella pneumoniae, KUB No. 5632, AR Bank # 135): > 64 µg/mL
- MIC (Klebsiella pneumoniae, KUB No. 5635, AR Bank # 138): > 64 µg/mL
- MIC (Klebsiella pneumoniae, KUB No. 5636, AR Bank # 139): 64 µg/mL (≈ 124 µM)
- MIC (Klebsiella pneumoniae, KUB No. 5637, AR Bank # 140): > 64 µg/mL
- MIC (Klebsiella pneumoniae, KUB No. 5638, AR Bank # 141): > 64 µg/mL
- MIC (Klebsiella pneumoniae, KUB No. 5639, AR Bank # 142): > 64 µg/mL
- MIC (Klebsiella pneumoniae, KUB No. 5640, AR Bank # 143): > 64 µg/mL
- MIC (Klebsiella pneumoniae, KUB No. 5642, AR Bank # 145): 64 µg/mL (≈ 124 µM)
- MIC (Klebsiella pneumoniae, KUB No. 5643, AR Bank # 146): > 64 µg/mL
- MIC (Klebsiella pneumoniae, KUB No. 5645, AR Bank # 148): 64 µg/mL (≈ 124 µM)
- MIC (Klebsiella pneumoniae, KUB No. 5649, AR Bank # 152): > 64 µg/mL
- MIC (Klebsiella pneumoniae, KUB No. 5650, AR Bank # 153): > 64 µg/mL
- MIC (Klebsiella pneumoniae, KUB No. 5655, AR Bank # 158): > 64 µg/mL
- MIC (Klebsiella pneumoniae, KUB No. 5657, AR Bank # 160): 2 µg/mL (≈ 3.88 µM)
- MIC (Klebsiella pneumoniae, KUB No. 5757, AR Bank # 361): 16 µg/mL (≈ 31 µM)
- MIC (Klebsiella pneumoniae, KUB No. 5759, AR Bank # 363): 16 µg/mL (≈ 31 µM)
- MIC (Klebsiella pneumoniae, KUB No. 5760, AR Bank # 364): 4 µg/mL (≈ 7.76 µM)
- MIC (Klebsiella pneumoniae, KUB No. 5772, AR Bank # 376): > 64 µg/mL
- MIC (Klebsiella pneumoniae, Klebsiella pneumoniae KUB No. 5784, AR Bank #438): > 64 µg/mL
- MIC (Klebsiella pneumoniae, Klebsiella pneumoniae KUB No. 5797, AR Bank #453): > 64 µg/mL
- MIC (Klebsiella pneumoniae, Klebsiella pneumoniae KUB No. 5809, AR Bank #504): > 64 µg/mL
- MIC (Klebsiella pneumoniae, Klebsiella pneumoniae KUB No. 5810, AR Bank #505): > 64 µg/mL
- MIC (Klebsiella pneumoniae, Klebsiella pneumoniae KUB No. 5811, AR Bank #506): > 64 µg/mL
- MIC (Klebsiella pneumoniae, Klebsiella pneumoniae KUB No. 5812, AR Bank #507): > 64 µg/mL
- MIC (Klebsiella pneumoniae, Klebsiella pneumoniae KUB No. 5827, AR Bank #522): > 64 µg/mL
- MIC (Klebsiella pneumoniae, Klebsiella pneumoniae KUB No. 5828, AR Bank #523): 32 µg/mL (≈ 62.1 µM)
- MIC (Klebsiella pneumoniae, Klebsiella pneumoniae KUB No. 5829, AR Bank #524): 32 µg/mL (≈ 62.1 µM)
- MIC (Klebsiella pneumoniae, Klebsiella pneumoniae KUB No. 5830, AR Bank #525): 32 µg/mL (≈ 62.1 µM)
- MIC (Kluyvera ascorbata, KUB No. 5641, AR Bank # 144): 16 µg/mL (≈ 31 µM)
- MIC (Morganella morganii, KUB No. 5554, AR Bank# 57): > 64 µg/mL
- MIC (Morganella morganii, KUB No. 5630, AR Bank # 133): 64 µg/mL (≈ 124 µM)
- MIC (Proteus mirabilis, KUB No. 5556, AR Bank# 59): 2 µg/mL (≈ 3.88 µM)
- MIC (Proteus mirabilis, KUB No. 5652, AR Bank # 155): 64 µg/mL (≈ 124 µM)
- MIC (Proteus mirabilis, KUB No. 5653, AR Bank # 156): 0.5 µg/mL (≈ 0.97 µM)
- MIC (Proteus mirabilis, KUB No. 5656, AR Bank # 159): > 64 µg/mL
- MIC (Proteus mirabilis, KUB No. 5773, AR Bank # 377): 16 µg/mL (≈ 31 µM)
- MIC (Proteus mirabilis, KUB No. 5775, AR Bank # 379): 4 µg/mL (≈ 7.76 µM)
- MIC (Providencia rettgeri, KUB No. 5579, AR Bank # 82): 16 µg/mL (≈ 31 µM)
- MIC (Raoultella ornithinolvtica, KUB No. 5631, AR Bank # 134): 8 µg/mL (≈ 15.5 µM)
- MIC (Salmonella enterica, Salmonella Senftenberg, KUB No. 5624, AR Bank # 127): > 64 µg/mL
- MIC (Serratia marcescens, KUB No. 5588, AR Bank # 91): 0.12 µg/mL (≈ 0.233 µM)
- MIC (Serratia marcescens, KUB No. 5596, AR Bank # 99): 0.25 µg/mL (≈ 0.485 µM)
- MIC (Serratia marcescens, KUB No. 5618, AR Bank # 121): 0.12 µg/mL (≈ 0.233 µM)
- MIC (Serratia marcescens, KUB No. 5619, AR Bank # 122): 0.12 µg/mL (≈ 0.233 µM)
- MIC (Serratia marcescens, KUB No. 5620, AR Bank # 123): 0.12 µg/mL (≈ 0.233 µM)
- MIC (Serratia marcescens, KUB No. 5621, AR Bank # 124): 0.12 µg/mL (≈ 0.233 µM)
- MIC (Serratia marcescens, KUB No. 5627, AR Bank # 130): 0.12 µg/mL (≈ 0.233 µM)
- MIC (Serratia marcescens, KUB No. 5628, AR Bank # 131): 0.12 µg/mL (≈ 0.233 µM)
- MIC (Serratia marcescens, Serratia marcescens KUB No. 5822, AR Bank #517): > 64 µg/mL
- MIC (Serratia marcescens, Serratia marcescens KUB No. 5825, AR Bank #520): 0.25 µg/mL (≈ 0.485 µM)
- MIC (Serratia marcescens, Serratia marcescens KUB No. 5826, AR Bank #521): 8 µg/mL (≈ 15.5 µM)
- MIC50 (carbapenemase-producing Enterobacterales, Metallo-β-lactamase (N = 47), read-out: MIC50): > 64 µg/mL
- MIC90 (carbapenemase-producing Enterobacterales, Metallo-β-lactamase (N = 47)): > 64 µg/mL
- MIC90 (carbapenemase-producing Enterobacterales, Serine carbapenemase (N=61)): > 64 µg/mL
